Source: patent publication US20100316529A1, “Anti-Microbial Systems and Methods” (priority 2001, published 2010)
“And” between values parts separate entries of the source, which are not always exact repeats. Identical values can stand only once.

Experiments:
Assay type in all cases: cell-based
Ent. cloacae = assay: EDTA salt dilution test, MIC/MBC; details: three entries
Kleb. ornitholytica = assay: EDTA salt dilution test, MIC/MBC
Steno. maltophilia = assay: EDTA salt dilution test, MIC/MBC
C. lucitaniae = assay: EDTA agar dilution method, yeasts, MIC/MBC; details: Exhibit C
Excerpt: (§1) Protocol 3: Agar dilutions.
Do this until all the media is used up.

Kleb. oxytoca = assay: EDTA salt dilution test, MIC/MBC
C. parapsilosis = assay: EDTA agar dilution method, yeasts, MIC/MBC; details: Exhibit C
Experimental: (§2) The bactericidal effects were measured as the Minimum Bactericidal Concentration (MBC), while the inhibitory effects were measured as the Minimum Inhibitory Concentration (MIC). In each case, the concentration was measured as milligrams of the disinfectant salt per milliliter of water (mg/ml).
as §1
(§3) Prepare nutrient agar plates with increasing concentrations of EDTA, 0, 0.5, 1, 1.5, 2, 4, 6, 8, 10, 15, 20, 25, 30 mg/mL, using the following method. • Pour 300 mL distilled water into a sterile glass bottle. • Add the appropriate amount of EDTA. This is the concentration desired ×300, in grams. • Once the EDTA has fully dissolved, add 8.4 g of Nutrient agar powder (Oxoid). Mix thoroughly. • Do this for each concentration of EDTA required. […] Do this until all the media is used up. Label the plates with the concentration of EDTA they contain. • These plates can then be stored, until they are needed, in a 4° C. fridge. • Use an automatic plate inoculator to inoculate each plate with 21 organisms.

C. tropicalis = assay: EDTA agar dilution method, yeasts, MIC/MBC; details: Exhibit C
Experimental: as §2, §1, §3

C. glabrata = assay: EDTA agar dilution method, yeasts, MIC/MBC; details: two entries, Exhibit C
Experimental: as §2, §1, §3

C. guilliermondii = assay: EDTA agar dilution method, yeasts, MIC/MBC; details: Exhibit C
Experimental: as §2, §1, §3

C. albicans = assay: EDTA agar dilution method, yeasts, MIC/MBC; details: three entries, Exhibit C
Experimental: as §2, §1, §3

variety of microbes = assay: Efficacy of disinfectant salts of EDTA against a number of microbes; details: general statement
Experimental: The Applicant has tested the efficacy of a number of disinfectant salts of EDTA against a number of microbes.
(§4) Protocol one: Broth dilutions:
(§5) Inoculate a 25 ml nutrient broth (Oxoid No2) in a sterile universal container with one of the following organisms; Pseudomonas aeruginosa, Proteus Mirabilis, E. coli, Klebsiella pneumoniae, Staph aureus, Coagulase negative staphylococci, Enterococcus faecalis or MRSA.
(§6) Incubate the broth at 37° C. overnight.
Next day make up a series of nutrient broths containing a dilution of the appropriate EDTA as in the following list; 0 mg/mL, 0.25 mg/mL, 0.5 mg/mL, 1.0 mg/mL, 1.5 mg/mL, 2.0 mg/mL, 4.0 mg/mL, 6.0 mg/mL, 8.0 mg/mL, 10 mg/mL, 15 mg/mL, 20 mg/mL, 25 mg/mL, 30 mg/ml, 40 mg/mL, 50 mg/mL, 60 mg/mL, 70 mg/mL, 80 mg/mL, 90 mg/mL, 100 mg/mL.
(§7) To make these concentrations put the EDTA needed for 10 mLs in only 9 mLs of broth in sterile universal containers, as this will be diluted further when the organisms are added.
(§8) Dilute the overnight broth cultures to 10^7 organisms/mL using more sterile nutrient broth.
(§9) Add 1 mL of this diluent to each of the EDTA series broths. This gives a final concentration of 10^6 organism/mL in the EDTA broths.
(§10) Incubate for 18 hours at 37° C.
Next day visually read the MIC's by observing the turbidity of the broths. […]
(§11) Next day read the MBC's by performing colony counts.

Ent. faeculm = assay: EDTA salt dilution test, MIC/MBC
Coryneform strait/amy = assay: EDTA salt dilution test, MIC/MBC
Acinetobacter baumanii = assay: EDTA salt dilution test, MIC/MBC; details: two entries, Exhibit A2
Cornyeform amycolatum = assay: EDTA salt dilution test, MIC/MBC
Proteus mirabilis = assay: EDTA salt dilution test, MIC/MBC; details: two entries
Experimental: as §4, §5, §6, §7, §8, §9, §10
(§12) Next day visually read the MIC's by observing the turbidity of the broths.
(§13) Plate out 1 uL of each dilution onto fresh blood agar plate and spread using a sterile plastic spreader.
(§14) Incubate overnight at 37° C.
as §11

Kleb. pnemoniae = assay: EDTA salt dilution test, MIC/MBC; details: two entries
Experimental: as §4, §5, §6, §7, §8, §9, §10, §12, §13, §14, §11

S. simulans = assay: EDTA salt dilution test, MIC/MBC
Experimental: as §4, §5, §6, §7, §8, §9, §10, §12, §13, §14, §11

S. capitis = assay: EDTA salt dilution test, MIC/MBC; details: two entries
Experimental: as §4, §5, §6, §7, §8, §9, §10, §12, §13, §14, §11

Pseudomonas aeruginosa = assay: EDTA salt dilution test, MIC/MBC; details: two entries
Experimental: as §4, §5, §6, §7, §8, §9, §10, §12, §13, §14, §11

Ent. faecalis = assay: EDTA salt dilution test, MIC/MBC
Experimental: as §4, §5, §6, §7, §8, §9, §10, §12, §13, §14, §11

Pseudomonas sp. = assay: EDTA salt dilution test, MIC/MBC
Experimental: as §4, §5, §6, §7, §8, §9, §10, §12, §13, §14, §11

S. epidermidis = assay: EDTA salt dilution test, MIC/MBC; details: two entries
Experimental: as §4, §5, §6, §7, §8, §9, §10, §12, §13, §14, §11

S. lentus = assay: EDTA salt dilution test, MIC/MBC
Experimental: as §4, §5, §6, §7, §8, §9, §10, §12, §13, §14, §11

VRE = assay: EDTA salt dilution test, MIC/MBC; details: two entries
Experimental: as §4, §5, §6, §7, §8, §9, §10, §12, §13, §14, §11

E. coli = assay: EDTA salt dilution test, MIC/MBC; details: three entries
Experimental: as §4, §5, §6, §7, §8, §9, §10, §12, §13, §14, §11

MRSA = assay: EDTA salt dilution test, MIC/MBC; details: five entries
Experimental: as §4, §5, §6, §7, §8, §9, §10, §12, §13, §14, §11

S. xylosus = assay: EDTA salt dilution test, MIC/MBC
Experimental: as §4, §5, §6, §7, §8, §9, §10, §12, §13, §14, §11

S. aureus = assay: EDTA salt dilution test, MIC/MBC; details: five entries
Experimental: as §4, §5, §6, §7, §8, §9, §10, §12, §13, §14, §11

Proteus vulgaris = assay: EDTA salt dilution test, MIC/MBC

O=C([O-])CN(CCN(CC(=O)O)CC(=O)O)CC(=O)[O-].[K+].[K+] [Dipotassium EDTA]
MBC, minimum concentration required to kill an entire population (Ent. cloacae; Exhibit A1): 15000 µg/mL and >15000 µg/mL
MIC, minimum concentration required to inhibit growth (Ent. cloacae; Exhibit A2): 4000 µg/mL and 6000 µg/mL
MBC, minimum concentration required to kill an entire population (Kleb. ornitholytica; Exhibit A1): >15000 µg/mL
MIC, minimum concentration required to inhibit growth (Kleb. ornitholytica; Exhibit A2): 1000 µg/mL
MBC, minimum concentration required to kill an entire population (Steno. maltophilia; Exhibit A1): 10000 µg/mL
MIC, minimum concentration required to inhibit growth (Steno. maltophilia; Exhibit A2): <500 µg/mL
MIC's, Minimum Inhibitory Concentration (C. lucitaniae): 500 µg/mL
MBC, minimum concentration required to kill an entire population (Kleb. oxytoca; Exhibit A1): 15000 µg/mL
MIC, minimum concentration required to inhibit growth (Kleb. oxytoca; Exhibit A2): 1000 µg/mL
MIC's, Minimum Inhibitory Concentration (C. parapsilosis): 500 µg/mL
MIC's, Minimum Inhibitory Concentration (C. tropicalis): 1000 µg/mL
MIC's, Minimum Inhibitory Concentration (C. glabrata): 500 µg/mL
MIC's, Minimum Inhibitory Concentration (C. guilliermondii): 500 µg/mL
MIC's, Minimum Inhibitory Concentration (C. albicans): 500 µg/mL
anti-microbial (antifungal and antibacterial) properties compared with the disodium salt (variety of microbes): superior to disodium EDTA
MIC, minimum concentration required to inhibit growth (Ent. faeculm; Ent. faecuim, Exhibit A2): <500 µg/mL
MBC, minimum concentration required to kill an entire population (Ent. faeculm; Ent. faeculm, Exhibit A1): 8000 µg/mL
MBC, minimum concentration required to kill an entire population (Coryneform strait/amy; Exhibit A1): <500 µg/mL
MIC, minimum concentration required to inhibit growth (Coryneform strait/amy; Exhibit A2): <500 µg/mL
MIC, minimum concentration required to inhibit growth (Acinetobacter baumanii): <500 µg/mL
MBC, minimum concentration required to kill an entire population (Cornyeform amycolatum; Exhibit A1): <500 µg/mL
MIC, minimum concentration required to inhibit growth (Cornyeform amycolatum; Exhibit A2): <500 µg/mL
MBC, minimum concentration required to kill an entire population (Proteus mirabilis; Exhibit A1): >15000 µg/mL and 15000 µg/mL
MIC, minimum concentration required to inhibit growth (Proteus mirabilis; Exhibit A2): <500 µg/mL
MBC, minimum concentration required to kill an entire population (Kleb. pnemoniae; Exhibit A1): 15000 µg/mL
MIC, minimum concentration required to inhibit growth (Kleb. pnemoniae; Exhibit A2): 1500 µg/mL and 1000 µg/mL
MBC, minimum concentration required to kill an entire population (S. simulans; Exhibit A1): 8000 µg/mL
MIC, minimum concentration required to inhibit growth (S. simulans; Exhibit A2): <500 µg/mL
MBC, minimum concentration required to kill an entire population (S. capitis; Exhibit A1): 8000 µg/mL and 10000 µg/mL
MIC, minimum concentration required to inhibit growth (S. capitis; Exhibit A2): <500 µg/mL
MBC, minimum concentration required to kill an entire population (Pseudomonas aeruginosa; Exhibit A1): >15000 µg/mL
MIC, minimum concentration required to inhibit growth (Pseudomonas aeruginosa; Exhibit A2): 1000 µg/mL
MBC, minimum concentration required to kill an entire population (Ent. faecalis; Exhibit A1): 15000 µg/mL
MIC, minimum concentration required to inhibit growth (Ent. faecalis; Exhibit A2): 1000 µg/mL
MBC, minimum concentration required to kill an entire population (Pseudomonas sp.; Exhibit A1): 15000 µg/mL
MIC, minimum concentration required to inhibit growth (Pseudomonas sp.; Exhibit A2): 1000 µg/mL
MBC, minimum concentration required to kill an entire population (S. epidermidis; Exhibit A1): 8000 µg/mL
MIC, minimum concentration required to inhibit growth (S. epidermidis; Exhibit A2): <500 µg/mL
MBC, minimum concentration required to kill an entire population (S. lentus; Exhibit A1): 10000 µg/mL
MIC, minimum concentration required to inhibit growth (S. lentus; Exhibit A2): <500 µg/mL
MBC, minimum concentration required to kill an entire population (VRE; Exhibit A1): 8000 µg/mL
MIC, minimum concentration required to inhibit growth (VRE; Exhibit A2): <500 µg/mL and 1000 µg/mL
MBC, minimum concentration required to kill an entire population (E. coli; Exhibit A1): >15000 µg/mL and 15000 µg/mL
MIC, minimum concentration required to inhibit growth (E. coli; Exhibit A2): 1000 µg/mL
MBC, minimum concentration required to kill an entire population (MRSA; Exhibit A1): 6000 µg/mL and 10000 µg/mL and 8000 µg/mL
MIC, minimum concentration required to inhibit growth (MRSA; Exhibit A2): 1000 µg/mL
MBC, minimum concentration required to kill an entire population (S. xylosus; Exhibit A1): 6000 µg/mL
MIC, minimum concentration required to inhibit growth (S. xylosus; Exhibit A2): <500 µg/mL
MBC, minimum concentration required to kill an entire population (S. aureus; Exhibit A1): 6000 µg/mL and 8000 µg/mL
MIC, minimum concentration required to inhibit growth (S. aureus; Exhibit A2): 1000 µg/mL
MBC, minimum concentration required to kill an entire population (Proteus vulgaris; Exhibit A1): >15000 µg/mL
MIC, minimum concentration required to inhibit growth (Proteus vulgaris; Exhibit A2): 1000 µg/mL
